Data as given in US20140221340A1 (KYOWA HAKKO KIRIN CO., LTD., priority 2011, published 2014).

target: T1, human CCR10 (Homo sapiens, UniProt P46092); experiment: Calcium assay of human CCR10 (inhibition of CTACK-induced increase in intracellular calcium ion concentration in hCCR10G16 cells); type: cell-based; conditions: test compound 100 nmol/L; human recombinant CTACK; hCCR10G16 cells (KJMGER8/Namalwa-derived, Gα16 co-expressed); FLIPR or FDSS; read-out: Inhibitory rate (%) for an increase in calcium ion concentration
T1 construct: expressed in transfected cells; host or cells: KJMGER8 cell (cell line derived from Namalwa cell); expression induced with 10 nmol/L β-estradiol
T1 sequence (P46092 1-362): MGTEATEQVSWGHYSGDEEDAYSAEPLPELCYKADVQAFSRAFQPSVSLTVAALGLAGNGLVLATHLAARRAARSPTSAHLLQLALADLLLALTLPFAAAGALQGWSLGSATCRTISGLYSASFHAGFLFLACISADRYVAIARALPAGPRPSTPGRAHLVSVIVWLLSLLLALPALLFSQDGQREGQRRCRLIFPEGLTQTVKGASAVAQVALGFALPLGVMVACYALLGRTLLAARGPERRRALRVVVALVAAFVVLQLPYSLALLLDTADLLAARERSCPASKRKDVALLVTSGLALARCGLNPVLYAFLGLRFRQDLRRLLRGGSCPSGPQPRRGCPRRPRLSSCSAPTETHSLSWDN
Description: A CCR10-inducible expression plasmid was produced according to a known method (“Analytical Biochemistry”, 2006, vol. 400, page 163). A DNA encoding human CCR10 was obtained by PCR. Using human chromosomal DNA (100 ng; manufactured by Clontech Laboratories, Inc.) as a template, a synthetic DNA having the sequences shown by SEQ ID NOs: 1 and 2 as a human CCR10 cDNA specific primer, and Pyrobest DNA Polymerase (manufactured by TAKARA SHUZO CO. LTD.) as an enzyme, a DNA encoding human CCR10 was obtained by PCR. As a buffer solution for PCR, the buffer solution attached to the enzyme was diluted 10-fold with deionized water and used. Using Thermal Cycler DNA Engine (manufactured by MJ Research), PCR was performed by 35 cycles of reactions composed of an incubation at 90° C. for 2 min, at 94° C. for 30 seconds, at an anneal temperature of 58° C. for 30 seconds, and at 72° C. for 1 min.
The amplified PCR fragment was cleaved with HindIII and NotI, then a human CCR10 DNA fragment was recovered by an agarose gel electrophoresis method. The fragment was incorporated in between the corresponding restriction enzyme sites (HindIII-NotI) of an inducible expression vector, whereby a human CCR10-inducible expression plasmid were prepared.
Using a primer specific to the sequence of the plasmid (synthetic DNA having the sequences shown by SEQ ID NOs: 3 and 4), the sequence of human CCR10 DNA region was determined. For the determination of the base sequence, DNA sequencer 377 (manufactured by PerkinElmer) and a reaction kit (ABI Prism (registered trade mark) BigDye (registered trade mark) Terminator Cycle Sequencing Ready Reaction kit: manufactured by Applied Biosystems) were used. The sequence of human CCR10 DNA matched with the sequence (NM_016602) registered in GenBank.
Cells for the detection of the signal from human CCR10 by a calcium assay were prepared. Human CCR10-inducible expressing cells whose host cell is KJMGER8 cell (cell line derived from Namalwa cell) were prepared according to a known method (“Analy Biochem”, 2006, vol. 400, page 163). Human CCR10-inducible expression plasmid produced above and Gα16 expression plasmid were co-transfected into KJMGER8 cell by an electroporation method (“Cytotechnology”, 1990, vol. 3, page 133), whereby a signal from human CCR10 could be detected by a calcium assay (hereinafter to be referred to as hCCR10G16 cell). Gα16 expression plasmid was produced by incorporating human Gα16 DNA into expression vector pAMoh (WO03/087366). Induced expression of human CCR10 was performed by cultivating hCCR10G16 cells in the presence of 10 nmol/L β-estradiol (manufactured by Sigma Ltd.) for 24 hr.
Cells expressing human CCR10 induced by the above-mentioned method were suspended in RPMI1640 medium and adjusted to cell density of 1.25×10^6 cells/mL. This mixture was dispensed to a 384 well clear bottom plate (manufactured by Corning Incorporated) at 20 μL/well, and these were incubated at 37° C. for several dozen minutes. A loading buffer prepared according to the protocol attached to FLIPR Calcium 3 assay kit (manufactured by Molecular Device) was dispensed to this plate at 20 μL/well, and the plate was incubated at 37° C. for 60 min. A 33 μmol/L DMSO solution of the test compound was diluted 37-fold with RPMI1640 medium and the resulting solution was added at 5 μL/well, and the mixture was incubated at 37° C. for 30 min. 300 nmol/L human recombinant CTACK (manufactured by R and D Systems) diluted with RPMI1640 medium containing 1 w/v % bovine serum albumin was added at 5 μL/well. Change of the intracellular calcium ion concentration for about 5 min after the addition was measured by FLIPR (manufactured by Molecular Device) or FDSS (manufactured by Hamamatsu Photonics K.K.). The difference between the maximum fluorescence intensity and the minimum fluorescence intensity for 5 min was calculated, and taken as the measurement value (maximum fluorescence intensity−minimum fluorescence intensity). […]

O=C(c1cnc2c(S(=O)(=O)Nc3ncccn3)cnn2c1Nc1cc(Cl)ccc1Cl)N1CCC(c2ccc(F)cc2)CC1 [a-80, 7-(2,5-Dichlorophenylamino)-6-[4-(4-fluorophenyl)piperidine-1-carbonyl]-N-(pyrimidin-2-yl)pyrazolo[1,5-a]pyrimidine-3-sulfonamide] was tested. Which inhibition at 0.1 µM did it give?
The inhibition at 0.1 µM was over 100%.

Which inhibition at 0.1 µM does the source give for Cc1ccc(Cl)c(Nc2c(C(=O)N3CCC(c4ccc(F)cc4)CC3)cnc3c(S(=O)(=O)NC(N)=O)cnn23)c1 [a-77, N-Carbamoyl-7-(2-chloro-5-methylphenylamino)-6-[4-(4-fluorophenyl)piperidine-1-carbonyl]pyrazolo[1,5-a]pyrimidine-3-sulfonamide] here?
The inhibition at 0.1 µM was over 100%.

How did the inhibition at 0.1 µM turn out when CCC(=O)NS(=O)(=O)c1cnn2c(Nc3cc(C)ccc3Cl)c(C(=O)N3CCC4(CC3)OCc3ccccc34)cnc12 [a-56, N-{7-(2-Chloro-5-methylphenylamino)-6-[3H-spiro(isobenzofuran-1,4′-piperidine)-1′-carbonyl]pyrazolo[1,5-a]pyrimidin-3-ylsulfonyl}propionamide] was run?
The inhibition at 0.1 µM was over 100%.

How did the inhibition at 0.1 µM turn out when CCNC(=O)NS(=O)(=O)c1cnn2c(Nc3cc(C)ccc3Cl)c(C(=O)N3CCC(c4ccc(F)cc4)CC3)cnc12 [a-14, 7-(2-Chloro-5-methylphenylamino)-N-(ethylcarbamoyl)-6-[4-(4-fluorophenyl)piperidine-1-carbonyl]pyrazolo[1,5-a]pyrimidine-3-sulfonamide] was run?
Its inhibition at 0.1 µM is over 100%.

For Cc1cc(F)ccc1Nc1c(C(=O)N2CCC(c3ccc(F)cc3)CC2)cnc2c(S(=O)(=O)NCC(F)(F)F)cnn12 [a-4, 7-(4-Fluoro-2-methylphenylamino)-6-[4-(4-fluorophenyl)piperidine-1-carbonyl]-N-(2,2,2-trifluoroethyl)pyrazolo[1,5-a]pyrimidine-3-sulfonamide], which inhibition at 0.1 µM is on record?
The inhibition at 0.1 µM was over 100%.

CCC(=O)NS(=O)(=O)c1cnn2c(Nc3cc(C)c(F)cc3Cl)c(C(=O)N3CCC(c4ccc(F)cc4)CC3)cnc12 [a-40, N-{7-(2-Chloro-4-fluoro-5-methylphenylamino)-6-[4-(4-fluorophenyl)piperidine-1-carbonyl]pyrazolo[1,5-a]pyrimidin-3-ylsulfonyl}propionamide] was tested. Which inhibition at 0.1 µM did it give?
The inhibition at 0.1 µM was over 100%.

How did the inhibition at 0.1 µM turn out when COC(=O)NS(=O)(=O)c1cnn2c(Nc3ccccc3Cl)c(C(=O)N3CCC(c4ccccc4)CC3)cnc12 [a-8, Methyl 7-(2-chlorophenylamino)-6-(4-phenylpiperidine-1-carbonyl)pyrazolo[1,5-a]pyrimidin-3-ylsulfonylcarbamate] was run?
The inhibition at 0.1 µM was 99.6%.

Which inhibition at 0.1 µM does the source give for CNCC(=O)NS(=O)(=O)c1cnn2c(Nc3ccc(F)cc3C)c(C(=O)N3CCC(c4ccccc4)CC3)cnc12 [a-63, N-[7-(4-Fluoro-2-methylphenylamino)-6-(4-phenylpiperidine-1-carbonyl)pyrazolo[1,5-a]pyrimidin-3-ylsulfonyl]-2-methylaminoacetamide] here?
The inhibition at 0.1 µM was 58.8%.

Which inhibition at 0.1 µM does the source give for Cc1ccc(Cl)c(Nc2c(C(=O)N3CCC4(CC3)OCc3ccccc34)cnc3c(S(=O)(=O)NC(=O)C4(C)COC4)cnn23)c1 [a-58, N-{7-(2-Chloro-5-methylphenylamino)-6-[3H-spiro(isobenzofuran-1,4′-piperidine)-1′-carbonyl]pyrazolo[1,5-a]pyrimidin-3-ylsulfonyl}-3-methyloxetane-3-carboxamide] here?
The inhibition at 0.1 µM was over 100%.

For CCC(=O)NS(=O)(=O)c1cnn2c(Nc3ccc(Cl)cc3Cl)c(C(=O)N3CCC(c4ccc(F)cc4)CC3)cnc12 [a-19, N-{7-(2,4-Dichlorophenylamino)-6-[4-(4-fluorophenyl)piperidine-1-carbonyl]pyrazolo[1,5-a]pyrimidin-3-ylsulfonyl}propionamide], which inhibition at 0.1 µM is on record?
The inhibition at 0.1 µM was 97%.

With O=C(c1cnc2c(S(=O)(=O)Nc3cccnn3)cnn2c1Nc1cc(Cl)ccc1Cl)N1CCC(c2ccc(F)cc2)CC1 [a-79, 7-(2,5-Dichlorophenylamino)-6-[4-(4-fluorophenyl)piperidine-1-carbonyl]-N-(pyridazin-3-yl)pyrazolo[1,5-a]pyrimidine-3-sulfonamide] as the molecule, how does the inhibition at 0.1 µM read?
The inhibition at 0.1 µM was over 100%.

How did the inhibition at 0.1 µM turn out when CCNC(=O)NS(=O)(=O)c1cnn2c(Nc3ccc(Cl)c(Cl)c3)c(C(=O)N3CCC(c4ccc(F)cc4)CC3)cnc12 [a-39, 7-(3,4-Dichlorophenylamino)-N-(ethylcarbamoyl)-6-[4-(4-fluorophenyl)piperidine-1-carbonyl]pyrazolo[1,5-a]pyrimidine-3-sulfonamide] was run?
Its inhibition at 0.1 µM is over 100%.

Cc1cc(F)ccc1Nc1c(C(=O)N2CCC(c3ccc(F)cc3)CC2)cnc2c(S(=O)(=O)NC3CC3)cnn12 [a-5, N-Cyclopropyl-7-(4-fluoro-2-methylphenylamino)-6-[4-(4-fluorophenyl)piperidine-1-carbonyl]pyrazolo[1,5-a]pyrimidine-3-sulfonamide] was tested. Which inhibition at 0.1 µM did it give?
Its inhibition at 0.1 µM is over 100%.

How did the inhibition at 0.1 µM turn out when O=C(NC1CC1)NS(=O)(=O)c1cnn2c(Nc3ccc(F)cc3Cl)c(C(=O)N3CCC(c4ccc(F)cc4)CC3)cnc12 [a-21, 7-(2-Chloro-4-fluorophenylamino)-N-(cyclopropylcarbamoyl)-6-[4-(4-fluorophenyl)piperidine-1-carbonyl]pyrazolo[1,5-a]pyrimidine-3-sulfonamide] was run?
The inhibition at 0.1 µM was over 100%.

Cc1ccc(Cl)c(Nc2c(C(=O)N3CCC4(CC3)OCc3ccccc34)cnc3c(S(=O)(=O)NC(=O)NC4CCOCC4)cnn23)c1 [a-81, 7-(2-Chloro-5-methylphenylamino)-6-[3H-spiro(isobenzofuran-1,4′-piperidine)-1′-carbonyl]-N-(tetrahydro-2H-pyran-4-ylcarbamoyl)pyrazolo[1,5-a]pyrimidine-3-sulfonamide] was tested. Which inhibition at 0.1 µM did it give?
The inhibition at 0.1 µM was 62.3%.

CCNS(=O)(=O)c1cnn2c(Nc3ccc(Cl)cc3C)c(C(=O)N3CCC(c4ccc(F)cc4)CC3)cnc12 [a-16, N-Ethyl-7-(4-chloro-2-methylphenylamino)-6-[4-(4-fluorophenyl)piperidine-1-carbonyl]pyrazolo[1,5-a]pyrimidine-3-sulfonamide] was tested. Which inhibition at 0.1 µM did it give?
The inhibition at 0.1 µM was over 100%.

CC(=O)NS(=O)(=O)c1cnn2c(Nc3cccc(Cl)c3Cl)c(C(=O)N3CCC(c4ccc(F)cc4)CC3)cnc12 [a-38, N-{7-(2,3-Dichlorophenylamino)-6-[4-(4-fluorophenyl)piperidine-1-carbonyl]pyrazolo[1,5-a]pyrimidin-3-ylsulfonyl}acetamide] was tested. Which inhibition at 0.1 µM did it give?
Its inhibition at 0.1 µM is over 100%.

Cc1cc(F)ccc1Nc1c(C(=O)N2CCC(c3ccccc3)CC2)cnc2c(S(=O)(=O)NC(=O)C(F)(F)F)cnn12 [a-70, 2,2,2-Trifluoro-N-[7-(4-fluoro-2-methylphenylamino)-6-(4-phenylpiperidine-1-carbonyl)pyrazolo[1,5-a]pyrimidin-3-ylsulfonyl]acetamide] was tested. Which inhibition at 0.1 µM did it give?
The inhibition at 0.1 µM was over 100%.

For CCC(=O)NS(=O)(=O)c1cnn2c(Nc3cc(C)ccc3Cl)c(C(=O)N3CC4(C3)CN(c3ccc(F)cc3)C4)cnc12 [a-60, N-{7-(2-Chloro-5-methylphenylamino)-6-[6-(4-fluorophenyl)-2,6-diazaspiro[3,3]heptane-2-carbonyl]pyrazolo[1,5-a]pyrimidin-3-ylsulfonyl}propionamide], which inhibition at 0.1 µM is on record?
Its inhibition at 0.1 µM is 90.2%.
